Assay results from patent US8338480B2, “Combination treatment of metabolic disorders” (Wellstat Therapeutics Corporation, priority 2006, dated 2012).
Counter-ions that a name gives are not always drawn.

Columns and labels:
Type in all cases: in vivo
Male C57B1/6 mice = assay: Food intake and body weight of male C57Bl/6 mice under restricted feeding (Example 3); details: for Post-treatment Food Intake (5 Hour): 5 hour meal; for food intake (in words): restricted feeding paradigm; for Change in Body weight % / Change in Body weight (grams ± SEM) / Post-treatment Body weight: restricted feeding
Procedure: Animals. […] Food was withheld for the remainder of each day. Because of the restricted feeding time, the mice eat less than under ad libitum food availability. Therefore, reduction of food intake in this model requires a drug effect sufficient to overcome the hunger stimulus provided by subnormal daily food intake. Drug Administration. Groups of 10 mice each (individually weighed and marked, divided into 5/cage and trained and monitored as above; were dosed once per day with Compound BI (100 mg/kg), rosiglitazone (3 mg/kg), both drugs, or vehicle by oral gavage at 8 AM for four consecutive days. Comparator groups receiving appetite modulators not suitable for oral dosing (PYY and cerulenin) received intraperitoneal injections at 8 AM for four consecutive days. […] [table]

db/db mice [1] = assay: Serum glucose in db/db mice after two weeks (Example 4); details: compound alone 100 mg/kg
Procedure: (§1) • 8. Vehicle (1% hydroxypropylmethylcellulose) • 9. Compound BI 100 mg/kg • 10. Rosiglitazone (RSG) 3 mg/kg • 11. Compound BI 100 mg/kg+RSG 3 mg/kg • 12. Compound CF 100 mg/kg • 13. Compound CF 100 mg/kg+RSG 3 mg/kg • 14. Compound CT 100 mg/kg+RSG 3 mg/kg • 15. […]
(§2) After two weeks, blood samples were collected from the retro-orbital sinus and processed for serum chemistry measurements.

Adiponectin = assay: Serum adiponectin in db/db mice after two weeks (Example 4); details: for Adiponectin ± SD: db/db mice serum, compound alone 100 mg/kg; for effect on adiponectin with concurrent rosiglitazone (in words) / serum adiponectin, individual agents (in words): db/db mice; for effect on adiponectin with concurrent rosiglitazone (in words): 100 mg/kg + RSG 3 mg/kg; for serum adiponectin, individual agents (in words): agent alone
Description: Adiponectin is an glycoprotein secreted from white adipose tissue. Adiponectin improves insulin sensitive in other tissues, e.g. muscle and liver, and is also protective against atherosclerosis. Thiazolidinedione antidiabetic agents such as rosiglitazone or pioglitazone act largely via action at the PPAR-gamma, a nuclear receptor involved in regulation of fuel metabolism. PPAR-gamma agonists enhance adiponectin production by adipose tissue, and this may contribute to their beneficial effects in diabetes and related metabolic disorders.
as §1, §2

db/db mice [2] = assay: Serum glucose in db/db mice, combinations with rosiglitazone or pioglitazone, 4 weeks (Example 5); details: 4 weeks oral once per day
Procedure: Male db/db mice have a defect in the receptor for the appetite-regulating protein leptin and consequently develop hyperphagia, obesity, insulin resistance, hyperglycemia, hypertriglyceridemia. Male db/db mice are an accepted animal model for Type II diabetes. The effect of a range of single daily doses of orally administered Compound BI was assessed in this model, and the efficacy of rosiglitazone alone and in combination with Compound BI was also examined.
Male C57BL/Ksola db/db mice (“db/db mice”) were obtained from Harlan (Indianapolis, Ind.) and allowed to acclimate for a minimum of one week.
Body weights and blood glucose levels were measured and animals were sorted groups of 6-7 mice with equivalent mean body weights in each group. […].
• 12. Vehicle • 13. Compound BI 100 mg/kg/day • 14. Rosiglitazone 3 mg/kg • 15. Rosiglitazone 3 mg/kg+Compound BI 100 mg/kg • 16. Pioglitazone 30 mg/kg • 17. Pioglitazone 30 mg/kg+Compound BI 100 mg/kg • 18. Pioglitazone 100 mg/kg • 19. Pioglitazone 100 mg/kg+Compound BI 100 mg/kg
Drug preparation: Compound BI was suspended in a vehicle comprising 1% aqueous hydroxypropylmethylcellulose, using a tissue homogenizer to minimize particle size and maximize uniformity of the suspension. Pioglitazone and rosiglitazone were suspended in the same vehicle after pulverization of commercial tablets of each of these drugs. Drug concentrations in the dosing suspension for each treatment group were adjusted according to body weights so that a constant volume of 0.4 ml provided appropropriate drug doses in all groups.
Drug Administration: Drugs were administered orally by gavage once per day for 28 days.
Blood sampling: For serum chemistry analysis, nonfasting blood samples (200 microliters) were obtained via the retro-orbital sinus and collected in serum separator tubes at 11 AM on day 28 after initiation of drug administration.

[3] = Cerulenin 30 mg/kg i.p. once per day
[4] = PYY 100 mg/kg i.p. once per day

Compound | food intake (in words) (Male C57B1/6 mice) | Glucose ± SD (db/db mice [1]) [mg/dL] | Adiponectin ± SD (Adiponectin) [micrograms/ml] | effect on adiponectin with concurrent rosiglitazone (in words) (Adiponectin) | serum adiponectin, individual agents (in words) (Adiponectin) | other results
C/C=C/C/C=C/CCC(=O)[C@H]1O[C@H]1C(N)=O [Cerulenin] | failed to have an effect |  |  |  |  | Post-treatment Food Intake (5 Hour) (Male C57B1/6 mice; [3]): 2.45 ± 0.10 grams; Change in Body weight % (Male C57B1/6 mice; [3]): +0.81 ± 0.49%; Change in Body weight (grams ± SEM) (Male C57B1/6 mice; [3]): +0.16 ± 0.10 grams; Post-treatment Body weight (Male C57B1/6 mice; [3]): 21.18 ± 0.66 grams
Cc1cccc(C)c1COc1cccc(CC(=O)O)c1 [Compound CF, 3-(2,6-Dimethylbenzyloxy)phenylacetic acid] |  | 305 ± 75 | 6.5 ± 2.0 | strongly amplify the effect of concurrent rosiglitazone on adiponectin | did not elevate serum adiponectin levels | 
Cc1cccc(C)c1COc1cccc(CC(=O)NO)c1 [Compound CT, N-Hydroxy-2-[3-(2,6-dimethylbenzyloxy)phenyl]acetamide] |  | 235 ± 107 | 5.4 ± 1.5 | strongly amplify the effect of concurrent rosiglitazone on adiponectin | did not elevate serum adiponectin levels | 
CCc1ccc(CCOc2ccc(CC3SC(=O)NC3=O)cc2)nc1 (centres unmarked) [PIO, pioglitazone hydrochloride] |  |  |  |  |  | Serum Glucose (mg/dL) Mean ± SD (db/db mice [2]; PIO 30 mg/kg): 550 ± 74 mg/dL; Serum Glucose (mg/dL) Mean ± SD (db/db mice [2]; PIO 100 mg/kg): 597 ± 228 mg/dL
Peptide YY fragment 3-36 human [PYY] | failed to have an effect |  |  |  |  | Post-treatment Food Intake (5 Hour) (Male C57B1/6 mice; [4]): 2.28 ± 0.25 grams; Change in Body weight % (Male C57B1/6 mice; [4]): −0.96 ± 0.50%; Change in Body weight (grams ± SEM) (Male C57B1/6 mice; [4]): −0.20 ± 0.10 grams; Post-treatment Body weight (Male C57B1/6 mice; [4]): 20.86 ± 0.33 grams
